The test system of one data set is uterine horn. The settings on record: cited from earlier work.
For another data set, the system named is extrauterine pregnancy. The settings on record: selected patients (mass less than 4 cm, no fetal heart beat, low β-hCG); cited from earlier work.
Data set [1] has as its system feto-placental unit. The experiment in a line: In vivo placental PDT of a single feto-placental unit in the pregnant rat. As for the experimental part: Materials and Methods (i) Animals. Pregnant 10-week old female Wistar rats (litter sizes of 10±2) (Harlan Laboratories, Rehovot, Israel) were delivered to the lab on embryonic day 7-12 (E7-E12) and allowed acclimatization of at least 48 h. All animal protocols were approved by the Weizmann Institutional Animal Care and Use Committee (IACUC).
(ii) Photosensitizer. Palladium 3^1-oxo-15 -methoxycarbonylmethylrhodobacterio-chlorin-13^1,17^3-di(2-N2-dimethylaminoethyl) amide (PMRDA), a water-soluble positively charged Pd-bacteriochlorophyll derivative disclosed in WO 2005/120573, was either synthesized in the inventor's laboratory by known methods or kindly provided by Steba Laboratories Ltd. (Israel), and used as a photosensitizer. The PMRDA was obtained as powder and kept under Argon (Ar) at −20° C. in the dark. Thereafter it was dissolved in methanol (MeOH) and, following spectrophotometric determination of concentration, was divided into aliquots, dried under Ar and kept at −20° C. in the dark until use.
(iii) Light source. A 1W 755 nm laser (CeramOptec, Bonn, Germany) was used. Light was delivered via a diffuser tipped optic fiber (Medlight S.A., Ecublens, Switzerland).
(iv) In vivo PDT protocol. A pregnant rat (E14) was anesthetized by isoflurane inhalation using the IMPAC6 system (VetEquip Inc., Pleasanton, Calif., USA) and placed on its back; the lower abdomen was shaved, washed with 70% ethanol and draped with sterile gauze. A midline incision (approximately 2 cm in length) in the lower abdomen was performed by cutting the skin and abdominal-muscle layers separately. Using round forceps, the uterus was gently drawn out from the abdominal cavity and placed on the gauze. The exposed uterus was continuously irrigated with sterile 0.9% NaCl solution during the procedure (for layout, see FIGS. 5A, 5B). One embryo was randomly selected for treatment and positioned with the placenta facing up. […] Anesthesia was discontinued and the rat was placed in a cage and closely monitored for at least 48 h. […]

Data set [2] concerns feto-placental unit. Nature of the data set: Histological analysis of feto-placental units and adjacent uterus after in utero PDT. The class given is in vivo, Wistar rats. The settings on record: E16. The method, then:
(iv) In vivo PDT protocol. A pregnant rat (E14) was anesthetized by isoflurane inhalation using the IMPAC6 system (VetEquip Inc., Pleasanton, Calif., USA) and placed on its back; the lower abdomen was shaved, washed with 70% ethanol and draped with sterile gauze. A midline incision (approximately 2 cm in length) in the lower abdomen was performed by cutting the skin and abdominal-muscle layers separately. Using round forceps, the uterus was gently drawn out from the abdominal cavity and placed on the gauze. The exposed uterus was continuously irrigated with sterile 0.9% NaCl solution during the procedure (for layout, see FIGS. 5A, 5B). One embryo was randomly selected for treatment and positioned with the placenta facing up. The laser beam was then directed to the exposed placental pole and the beam positioned for subsequent therapeutic illumination (6 mm light spot diameter) using the built-in visible (630 nm, 3 mW) aiming beam. No shielding of neighboring embryos was required. The photosensitizer PMRDA (50 μg/30 μl sterile saline) was delivered by trans-uterine injection (30G, 0.3 ml, insulin syringe) into the placenta. Following a drug/light time interval (DLTI) of 120 sec, illumination (100 mW/cm^2) was delivered (300 sec) to the placenta in a trans-uterine manner from above, perpendicular to the uterus (FIG. 5A). Upon completion of the PDT protocol, the uterus was eased back into the abdominal cavity. The abdominal facia was sutured using sterile 4-0 braided silk thread and the skin was clipped using 9 mm surgical clips. Anesthesia was discontinued and the rat was placed in a cage and closely monitored for at least 48 h. Animals received analgesia (Oxycod®, 6 ml/l) in their drinking water for at least 48 h. Controls: Dark control (DC): placental administration of photosensitizer without illumination. Light control (LC): placental sham injection of sterile vehicle (saline), followed by illumination with the respective light dose. Untreated control (UN): all untreated fetoplacental units in a treated rat.
(viii) Histology. […]

The subject of the next data set is uterus. Nature of the data set: Histological analysis of post-PDT uteri for long-term damage. It is filed as in vivo, Wistar rats. As for the experimental part:
(viii) Histology. Following animal sacrifice, the abdomen was surgically opened, the uterus was tied-off at the cervix, removed and placed in Carnoy's fixative (6:3:1 ethanol, chloroform and acetic acid, by vol.), or Tris-buffered Zn fixative (2.8 mM calcium acetate, 22.8 mM zinc acetate, and 36.7 mM zinc chloride in 0.1M Tris buffer, pH 7.4) for 48-72 h. Fixed tissue samples were placed in 70% ethanol, paraffin embedded and slides were prepared. Slides were stained with hematoxylin and eosin (H&E) Immunohistochemical staining of the specific cell markers was done using the following antibodies: sheep anti-von Willebrand Factor (vWF)] (Serotec, Oxford, UK), mouse anti-pancytokeratin (clone AE1/AE3, Zymed, San-Francisco, USA) and mouse anti-human smooth muscle actin (SMA) (a SMC marker) (clone 1A4, Serotec, Oxford, UK).
Following verification of the functional integrity of post-PDT rat uteri, histological analysis was conducted in order to identify possible long-term damage resulting from the treatment. For this purpose, uteri in post-PDT and control manipulated rats were examined approximately 10 days after parturition (17-18 days after treatment). The respective uteri were stained by standard H&E (FIGS. 8B and 8F) as well as by anti-SMA antibody (a SMC marker, indicative of uterine wall integrity) (FIGS. 8C and 8G), anti-pan-cytokeratin antibody (an epithelial cell marker, indicative of endometrial integrity and absence of adhesions) (FIGS. 8D and 8H) and for vWF factor (an endothelial cell marker, illustrating blood vessel integrity) (FIGS. 8E and 8I). Uteri featured mild to moderate organizing hemorrhages in the endometrium and mesometrium, typical of post-gravid uteri (uteri after parturition). The only type of lesion found was the presence of a low number of hemosiderin-laden macrophages (siderophages) in the endometrium (where such a presence is normal) and in the mesometrium. This finding (siderophages) was highest in the DC uterus and milder in the post PDT uterus.

The conditions of data set [3]: rat.
From the text: (vi) Post PDT fertility assessment. Treated rats were allowed to reach parturition and pup weaning (P21). Fertile males were then introduced into the cages and rats were allowed to mate until pregnancy could be verified by daily vaginal smears and palpation. Pregnancy in both uterine horns was verified by magnetic resonance imaging (MRI) and/or by animal sacrifice and macroscopic examination.
The mark [4] stands for this setting: subsequent fertility after 5-ALA PDT.

“And” between values parts separate entries of the source, which are not always exact repeats. Equal values may be shown once. “Also recorded” adds a separate entry of the source.

For the compound `NCC(=O)CCC(=O)O` [5-ALA, 5-aminolevulinic acid], the “treated animals that did not conceive following PDT” value in the data set on uterine horn (5-ALA administered E10, examined E17) is “one third”. In addition, in the data set on uterine horn (setting [4]), the “fewer implanted embryos in the treated horn” value is reported as approximately 28% and the “treated animals that developed pregnancies in the treated horn subsequently” value is on record as 66.2%. In addition, the “pregnancy outcome in the treated uterine horn” value with uterine horn (systemic 5-ALA, whole horn illuminated) is on record as “loss of all embryos in the treated uterine horn; also recorded: termination of all pregnancies in the treated horn”.
`CN(Cc1cnc2nc(N)nc(N)c2n1)c1ccc(C(=O)N[C@@H](CCC(=O)O)C(=O)O)cc1` [methotrexate, Methotrexate]: the “success rate of medical therapy of EUP” value with extrauterine pregnancy is 70-95%.
“Palladium 3^1-oxo-15 -methoxycarbonylmethylrhodobacterio-chlorin-13^1,17^3-di(2-N2-dimethylaminoethyl) amide [PMRDA]”: the “pregnancy termination (embryo death rate) following PMRDA-PDT” value with feto-placental unit [1] (50 μg/30 μl intra-placental injection at E14, DLTI 120 sec, 755 nm 100 mW/cm^2 for 300 sec, assessed E16, 11/14 embryos) is ~80% and 78.6%. The “embryo mortality rate, dark control (DC)” value in the data set with feto-placental unit [1] (placental administration of photosensitizer without illumination, E14, assessed E16, 3/8 embryos) is 37.5%. The “morbidity to the treated pregnant rat” value with feto-placental unit [1] (rat, in vivo) is “did not result in noticeable morbidity”. The “placental necrosis, share of placental mass involved” value in the data set with feto-placental unit [2] (post-PMRDA-PDT placenta) is “approximately 70%”. Besides, in the data set on feto-placental unit [2] (post-PMRDA-PDT), the “histological state of the embryo” value is recorded as “fully necrotic embryo” and the “state of the uterus adjacent to the treated placenta” value is recorded as “appeared viable”. For the same compound, the “siderophages in endometrium and mesometrium, post PDT uterus” value with uterus (PMRDA with illumination) is listed as “milder”. The “siderophages in endometrium and mesometrium, DC uterus” value in the data set with uterus (PMRDA without illumination) is reported as “highest”. Further, the “necrosis / pathological findings in post-PDT uteri” value in the data set on uterus (uteri after parturition, H&E, SMA, pan-cytokeratin, vWF staining) is “No necrotic areas were found; also recorded: no pathological findings”. Besides, in data set [3], the “fertility following local in vivo placental PDT” value is listed as “fertility of the rats is preserved”. Further, in data set [3] (in vivo), the “ability to conceive after PDT, parturition and re-mating” value was “all six rats pregnant”; the “litter sizes of second pregnancy” value is recorded as 6-11; the “parturition of the remaining litter after treatment” value is listed as “All six rats achieved normal parturition”; the “pups delivered at parturition after treatment” value is 6 to 11 pups.

The values above are taken from patent US20110040170A1, “ENDOSCOPIC IMAGING PHOTODYNAMIC THERAPY SYSTEM AND METHODS OF USE” (YEDA RESEARCH AND DEVELOPMENT CO., LTD., priority 2008, published 2011).
